Results as given in EP0404945A1 (priority 1989, dated 1990).
Read-outs that look alike come from different tables or passages of the source.

Key:
Candida tropicalis = assay: microbe, parasite or virus in culture; format: cell-based
Colibacillus = assay: microbe, parasite or virus in culture; format: cell-based; settings: read-out: Efficiency of the preparation, % Colibacillus
Candida albicans = assay: microbe, parasite or virus in culture; format: cell-based
Helminthosporum saturem = format: cell-based
Penicillium sporum = format: cell-based
Aspergillus niger = format: cell-based
Fusarium oxysporum = format: cell-based
Alternaria radicina = format: cell-based
Venturia inaequalis = format: cell-based
[1] = system: Infectant of poliomyelitis
ascarid ovi = assay: animal or person; format: in vivo, pig.ascarid; settings: read-out: Death of ascarid ovi, % Tests laboratory
Staphylococcus aureus = assay: microbe, parasite or virus in culture; format: cell-based; settings: read-out: Efficiency of the preparation, % Staphylococcus aureus
Virus of hepatitis B = assay: microbe, parasite or virus in culture; settings: 0.5 h, read-out: Death of viruses (%) at 30 minutes exposure, Virus of hepatitis B
houseflies = settings: house fly, in vivo
[2] = in vivo; cited from earlier work

`O=[N+]([O-])c1ccc(C(Cl)C(CCl)NP(=O)(O)O)cc1` (stereo not shown) [Example 3] gave a killing at 0.05 % (Candida tropicalis; 2 h, read-out: Death of test fungi, % to the control, Candida tropicalis 2 hrs) of 99%, a killing at 0.05 % (Candida tropicalis; 20 h, read-out: Death of test fungi, % to the control, Candida tropicalis 20 hrs) of 100% and a killing at 0.5 % (Colibacillus) of 100%. For the same compound, the killing at 0.05 % (Candida albicans; 2 h, read-out: Death of test fungi, % to the control, Candida albicans 2 hrs) was 100%, the killing at 0.05 % (Candida albicans; 20 h, read-out: Death of test fungi, % to the control, Candida albicans 20 hrs) was 100% and the “Mycelium growth inhibition, % to the control, Helminthosporum saturem” value (Helminthosporum saturem) was 100%. The “Mycelium growth inhibition, % to the control, Penicillium sporum” value (Penicillium sporum) was 100%, the “Mycelium growth inhibition, % to the control, Aspergillus niger” value (Aspergillus niger) was 100% and the “Mycelium growth inhibition, % to the control, Fusarium oxisporum” value (Fusarium oxysporum) was 68%. For the same compound, the “Mycelium growth inhibition, % to the control, Alternaria radicina” value (Alternaria radicina) was 80%, the “Mycelium growth inhibition, % to the control, Venturia inaequalis” value (Venturia inaequalis) was 98% and the “Death of viruses (%) at 60 minutes exposure, Infectant of poliomyelitis” value [1] was 80%. The killing at 3 % (ascarid ovi) was 100%, the killing at 0.5 % (Staphylococcus aureus) was 100% and the killing at 1 % (Virus of hepatitis B) was 100%.

In the case of `COP(=O)(OC)C(O)C(Cl)(Cl)Cl` (stereo not shown) [Known insecticidal preparation, O,O-Dimethyl-(1-hydroxy-2,2,2-tri-chloroethyl)-phosphonate], the “Death of flies, % Tests laboratory” value (houseflies) is reported as 90%, the “Death of flies, % after 48 hours” value (houseflies; 48 h) is reported as 81% and the “Death of flies, % after 72 hours” value (houseflies; 72 h) is reported as 84%. For the same compound, the LD50 [2] was 225 - 1,200 mg/kg.
